Series [1] in a line: Pharmacokinetics of BC-4 and BC-5 in mouse plasma and brain. Type of series: in vivo. The following applies: Balb/c mice, single oral dose 5 mg/kg. The procedure:
Pharmacokinetics of BC-4 and BC-5 were compared to BC-1. Pharmacokinetics were assessed in Balb/c mice administered a single oral dose of 5 mg/kg of the indicated compound (Tables 11 and 12).

A short description of series [2]: Pharmacokinetics of BC-2 and BC-3 in mouse plasma and brain. Format: in vivo, mice. The procedure: Pharmacokinetics were assessed in mice administered a single oral dose of 5 mg/kg of the indicated compound (Tables 9 and 10).
Series [3] deals with GL261. Nature of the series: GBM cell viability, Alamar blue, 72 hours. Format: cell-based. The following applies: Mus musculus, GL261, established glioma cell line. The procedure: (§1) The effect of VMY-BC-1 was tested on a panel of GBM cell lines. […] In this study 100 μM was the highest drug concentration used, with 3-fold dilution for a 10 dose response curve.
A general note: The colour change of resazurin is a common sign of viable cells or microbes.

Series [4] relates to U251. Nature of the series: GBM cell viability, Alamar blue, 72 hours. Format: cell-based. The following applies: Homo sapiens, U-251, U251, established glioma cell line. The procedure: as §1
Series [5] relates to U87. The experiment in a line: GBM cell viability, Alamar blue, 72 hours. Type of series: cell-based. The following applies: Homo sapiens, U-87 MG, U87, established glioma cell line. The procedure:
as §1

Series [6] deals with GBM8. Nature of the series: GBM cell viability, Alamar blue, 72 hours. Type of series: cell-based. The following applies: GBM8, patient-derived cell line. The procedure: as §1
Series [7] has as its system GBM4. Nature of the series: GBM cell viability, Alamar blue, 72 hours. The following applies: GBM4, patient-derived cell line. Format: cell-based. As for the experimental part:
as §1

Where [8] appears, read: Brain, single oral dose 5 mg/kg.
Where [9] appears, read: Plasma, single oral dose 5 mg/kg.
The mark [10] stands for this setting: single oral dose 5 mg/kg, 0 min.
[11] abbreviates: single oral dose 5 mg/kg, 30 min.
The mark [12] stands for this setting: single oral dose 5 mg/kg, 60 min.
The mark [13] stands for this setting: single oral dose 5 mg/kg, 180 min.
The mark [14] stands for this setting: single oral dose 5 mg/kg, 360 min.
Where [15] appears, read: single oral dose 5 mg/kg, 900 min.
The mark [16] stands for this setting: single oral dose 5 mg/kg, 1440 min.

The Tmax is the time at which the peak concentration occurs. Usually AUC(0-t) stands for the area under the concentration-time curve up to a stated or last time point. The term Cmax denotes the maximum level reached in the sampled fluid or tissue. What is called AUC(0-inf) is total exposure, with the tail of the curve extrapolated. The low end stands for low exposure, the high end for high exposure. As a reminder, the half-life is the time needed for the level to fall by half in the phase considered. Usually IC50 stands for the concentration that gives 50% inhibition. Higher therefore signals weaker potency in that assay.

Several values for one entry are separate records, joined by “and”; a condition that tells them apart may be missing. Equal entries are not always repeated.

As to `CC=C(c1ccc(OC)cc1)C(CC)c1cc(OC)cc(B(O)O)c1` (racemic) [BC-4], in series [1], the “Concentrations in plasma vs brain” value is reported as “higher concentrations in plasma than brain”. The “Brain level, Mean (4) ± SE” value in series [1] (0 min) is on record as “BQL”; in series [1] (30 min), 164 ± 16 ng/g; in series [1] (60 min), 139 ± 14 ng/g; in series [1] (180 min), “BQL”; in series [1] (360 min) it was “BQL”; in series [1] (900 min), “BQL”. Further, the “Brain level, Mean (4) ± SE” value in series [1] (1440 min) is given as “BQL”. The “Plasma level, Mean (4) ± SE” value is “BQL” in series [1] (0 min); 255 ± 20 ng,/ml in series [1] (30 min); 163 ± 20 ng,/ml in series [1] (60 min); 36 ± 6 ng,/ml in series [1] (180 min); 22 ± 3 ng,/ml in series [1] (360 min); “BQL” in series [1] (900 min). Further, the “Plasma level, Mean (4) ± SE” value in series [1] (1440 min) is listed as “BQL”. Moreover, the Tmax in series [1] (Brain) and in series [1] (Plasma) was 30 min throughout. For the same compound, the T½ came out at 127 min in series [1] (Brain) and 94.5 min in series [1] (Plasma). Further, the “terminal elimination rate constant (lambda z)” value in series [1] (Brain) turned out to be 0.00546 min⁻¹; in series [1] (Plasma), 0.00734 min⁻¹. The “AUC(0-t)” value in series [1] (Plasma) amounted to 25300 ng·min/mL. Besides, in series [1] (Plasma), the “AUC(inf)” value is 28300 ng·min/mL. Besides, the Cmax in series [1] (Plasma) worked out at 255 ng/mL.

In the case of `CCOc1ccc(/C=C/c2cc(OC)cc(B(O)O)c2)cc1` [BC-2, (E)-(3-(4-ethoxystyryl)-5-methoxyphenyl) Boronic Acid], in series [2] (mouse, in vivo, po, 5 mg/kg), the AUC(0-inf) was 2000 ng·h/mL; the “AUC(inf)” value turned out to be 504000 ng·min/mL; the highest concentration (Cmax) was 841 ng/mL and 4140 ng/g; the “Concentration in brain vs plasma” value was “higher concentration in brain than in plasma”. In series [2] (mouse, in vivo, po, 5 mg/kg), the Tmax stood at 60 min; the T½ is 54.8 min; the concentration at 30 min was 841 ng/mL and 3420 ng/g; the concentration at 60 min is 732 ng/mL and 4140 ng/g. In addition, in series [2] (mouse, in vivo, po, 5 mg/kg), the concentration at 180 min was 281 ng/mL and 983 ng/g; the concentration at 360 min was 43 ng/mL and 94 ng/g. Moreover, the Tmax in series [2] (mouse, in vivo, po, 5 mg/kg, Tmax) was 30 min. In series [2] (mouse, in vivo, po, 5 mg/kg, T½), this compound displayed a half-life of 72.8 min.

For `COc1cc(/C=C/c2ccc(F)cc2)cc(B(O)O)c1` [BC-3], the “Kd (Lambda Z)” value in series [2] (setting [8]) was determined as 0.000342 s⁻¹; in series [2] (setting [9]), 0.000358 s⁻¹. Moreover, the time to peak (Tmax) in series [2] (setting [8]) and in series [2] (setting [9]) was 30 min in each case. Also, the T½ is 33.8 min in series [2] (setting [8]) and 32.3 min in series [2] (setting [9]). In series [2] (setting [9]), the “AUC(0-t)” value was 25500 ng·min/mL. Besides, in series [2] (setting [9]), the “AUC(inf)” value was found to be 26300 ng·min/mL. In addition, the highest concentration (Cmax) in series [2] (setting [9]) is 439 ng/mL. The “Concentration in brain vs plasma” value in series [2] (single oral dose 5 mg/kg) is recorded as “higher concentration in brain than in plasma”. The “Brain level, Mean (4) ± SE” value was “BQL” in series [2] (setting [10]); 1951 ± 323 ng/g in series [2] (setting [11]); 1233 ± 219 ng/g in series [2] (setting [12]); 95 ± 26 ng/g in series [2] (setting [13]); “BQL” in series [2] (setting [14]); “BQL” in series [2] (setting [15]). The “Brain level, Mean (4) ± SE” value in series [2] (setting [16]) is given as “BQL”. For the same compound, the “Plasma level, Mean (4) ± SE” value in series [2] (setting [10]) is “BQL”; in series [2] (setting [11]) it was 439 ± 67 ng/mL; in series [2] (setting [12]), 217 ± 28 ng/mL; in series [2] (setting [13]), 17 ± 10 ng/mL; in series [2] (setting [14]), “BQL”; in series [2] (setting [15]) it was “BQL”. In addition, in series [2] (setting [16]), the “Plasma level, Mean (4) ± SE” value is given as “BQL”.

`CCC(=C(c1ccccc1)c1ccc(OC)cc1)c1cc(OC)cc(B(O)O)c1` [BC-5]: the “Concentrations in plasma vs brain” value in series [1] is “higher concentrations in plasma than brain”. Also, the “Brain level, Mean (4) ± SE” value in series [1] (0 min) is on record as “BQL”; in series [1] (30 min), 142 ± 32 ng/g; in series [1] (60 min), 205 ± 39 ng/g; in series [1] (180 min), 105 ± 26 ng/g; in series [1] (360 min), 28 ± 6 ng/g; in series [1] (900 min), “BQL”. Further, the “Brain level, Mean (4) ± SE” value in series [1] (1440 min) was “BQL”. Besides, the “Plasma level, Mean (4) ± SE” value in series [1] (0 min) is on record as “BQL”; in series [1] (30 min) it was 1599 ± 40 ng,/ml; in series [1] (60 min) it was 1524 ± 106 ng,/ml; in series [1] (180 min), 742 ± 91 ng,/ml; in series [1] (360 min), 290 ± 35 ng,/ml; in series [1] (900 min), 49 ± 10 ng,/ml. In series [1] (1440 min), the “Plasma level, Mean (4) ± SE” value was 15 ± 9 ng,/ml. Also, the Tmax in series [1] (Brain) was determined as 60 min; in series [1] (Plasma), 30 min. The T½ in series [1] (Brain) was determined as 103 min; in series [1] (Plasma), 251 min. The “terminal elimination rate constant (lambda z)” value in series [1] (Brain) is 0.00672 min⁻¹; in series [1] (Plasma), 0.00276 min⁻¹. In addition, the “AUC(0-t)” value in series [1] (Plasma) was 376000 ng·min/mL. The “AUC(inf)” value in series [1] (Plasma) came out at 381000 ng·min/mL. In series [1] (Plasma), this compound came in with a Cmax of 1600 ng/mL.

Turning to `Oc1ccc(C=Cc2cc(O)cc(O)c2)cc1` [Resveratrol, resveratrol, reference compound], the “Drug level in plasma and brain, all time points” value in series [2] (single oral dose 5 mg/kg) is recorded as “below quantification level”. Further, the “Brain level, Mean (4) ± SE” value in series [2] (setting [10]), in series [2] (setting [11]), in series [2] (setting [12]), in series [2] (setting [13]), in series [2] (setting [14]) and in series [2] (setting [15]) was “BQL” each time. Further, in series [2] (setting [16]), the “Brain level, Mean (4) ± SE” value is recorded as “BQL”. Also, the “Plasma level, Mean (4) ± SE” value in series [2] (setting [10]), in series [2] (setting [11]), in series [2] (setting [12]), in series [2] (setting [13]), in series [2] (setting [14]) and in series [2] (setting [15]) was “BQL” each time. For the same compound, the “Plasma level, Mean (4) ± SE” value in series [2] (setting [16]) is on record as “BQL”. Also, the half-inhibitory concentration (IC50) in series [3] was found to be 10.6 µM; in series [4], 12 µM; in series [5] it was 40 µM; in series [6] it was 26.6 µM; in series [7], 40.6 µM.

(Values after US20220213126A1, “SMALL MOLECULE AUTOPHAGY INDUCERS FOR THE TREATMENT OF CANCER AND NEURODEGENERATIVE DISEASES” (John Wayne Cancer Institute, priority 2019, published 2022).)
